{
  "source": "patent US20220288022A1",
  "about": "“PHARMACEUTICAL COMPOSITION FOR TOPICAL USE THAT IS IN THE FORM OF A DISPERSED PHASE BASED ON AT LEAST ONE SHORT DIOL IN A CONTINUOUS FATTY PHASE AND COMPRISING AT LEAST ONE ANTI-INFLAMMATORY SUBSTANCE” (SOCIETE D'EXPLOITATION DE PRODUITS POUR LES INDUSTRIES …, priority 2019, published 2022)",
  "assay": "Conductivity (σ) of the emulsions, characterization of the direction of the emulsion",
  "format": "physicochemical",
  "settings": "measured at 25° C., neat diol",
  "experimental": "The conductivity (σ) of the emulsions (F1) to (F3) according to the invention and of the emulsions (F′1) to (F′3) is measured at 25° C., after a period of storage of said emulsions of one day in an insulated climatic chamber regulated at a temperature of 25° C., by means of an LF 196™ brand conductivity meter from the company WTW equipped with a TetraCon™ 96 electrode. If, for a given emulsion, (σ)≤0.5 μS.cm^−1, the emulsion is considered to be non-conductive and consequently the external phase is not the phase based on 1,2-propanediol but the oily phase. Indeed, the conductivity, measured at 25° C., of 1,2-propanediol is equal to 4400 μS.cm^−1. If, for a given emulsion, (σ)>0.5 μS.cm^−1, the emulsion is considered to be conductive and consequently the external phase is not the oily phase but the phase based on 1,2-propanediol or glycerol or PEG-400. This same measurement of the conductivity of the emulsions (F1) to (F3) according to the invention and of the comparative emulsions (F′1) to (F′3) is measured at 25° C. after three months at 25° C., and after three months at 45° C.",
  "data": [
    {"smiles": "CC(O)CO", "note": "(stereo not shown) [1,2-propanediol]", "values": [
      {"measurement": "conductivity of 1,2-propanediol", "result": 4400, "unit": "μS.cm^−1"}
    ]}
  ]
}
